The source made the active and inactive calls. The calls are words filed in the database; no cut-off is given here.
Columns and labels:
[1] = Cytotoxicity against human CMEC/D3 cells assessed as increase in cell impedance at 1 uM incubated for 4 hrs by RTCA assay; type: toxicity, cell-based; settings: hcmec/d3, 4 h
[2] = Cytotoxicity against human CMEC/D3 cells assessed as decrease in cell impedance at 10 uM incubated for 4 hrs by RTCA assay; type: toxicity, cell-based; settings: hcmec/d3, 4 h
hCMEC/D3 [3] = assay: Cytoprotective activity against tBHP-induced oxidative damage in human CMEC/D3 cells at 1 uM incubated for 4 hrs by RTCA assay; type: functional, cell-based
hCMEC/D3 [4] = assay: Cytoprotective activity against TNFalpha-induced cellular damage in human CMEC/D3 cells assessed as increase in cell impedance at 1 uM incubated for 4 hrs by RTCA assay; type: functional, cell-based
hCMEC/D3 [5] = assay: Cytoprotective activity against IL-1beta-induced cellular damage in human CMEC/D3 cells assessed as increase in cell impedance at 1 uM incubated for 4 hrs by RTCA assay; type: functional, cell-based

Row | Compound | Activity [1] | Activity [2] | Activity (hCMEC/D3 [3]) | Activity (hCMEC/D3 [4]) | Activity (hCMEC/D3 [5])
1 | CC(C)(O)CC[C@H]1O[C@H]2C(=O)[C@@H]3C4=C(CC[C@]3(C)[C@H]2[C@@]1(C)O)[C@@]1(C)C[C@H](O)[C@H](O)CC1=C(O)C4=O | Non-Toxic | Toxic | Active | Active | Active
2 | CC(C)(O)CCC(=O)[C@](C)(O)[C@H]1CC(=O)C2=C3C(=O)C(O)=C4C[C@@H](O)[C@@H](O)C[C@]4(C)C3=CC[C@@]21C | Non-Toxic | Non-Toxic | Active | Active | Active
3 | CC(C)(O)CC[C@@H](O)[C@](C)(O)[C@H]1C[C@H](O)C2=C3C(=O)C(O)=C4C[C@@H](O)[C@@H](O)C[C@]4(C)[C@@]3(O)CC[C@@]21C | Non-Toxic | Non-Toxic | Active | Active | Active

Source: ChEMBL document CHEMBL5257042, “Highly Oxidized Ecdysteroids from a Commercial Cyanotis arachnoidea Root Extract as Potent Blood-Brain Barrier Protective Agents” (J Nat Prod, 2023)
